Tests used:
[1] = system: patient with post herpetic neuralgia, chronic lower back pain and anger with spouse; experiment: Example 8 case study; type: in vivo, human; settings: naltrexone 5 mg/clonidine 0.025 mg twice daily; naltrexone 5 mg twice daily; naltrexone 2.25 mg and acetaminophen 325 mg four times daily
[2] = system: emotional pain; experiment: Migraine open-label pilot study: emotional pain on 4-point scale (emotional pain-free, emotional pain intensity); type: in vivo, human; settings: for Change in emotional pain-free / Change in emotional pain-intensity: baseline to 24 h; for Emotional pain-intensity at 24 hours post-dosing / Emotional pain-intensity at baseline: sum of severity of all patients
Method: Sixteen unique patients were enrolled in an open phase pilot study for the acute treatment of migraine attacks, insomnia, and emotional pain. Of the sixteen patients, eleven were evaluated for one migraine attack, one for two attacks, two for four attacks, one for six attacks, and one for fourteen attacks. A total of forty-one […] treatments were evaluated. Patients received a single dose of one of the following treatment options:
The majority of the patients remained in the clinic for observation for 2 hours after dosing. They completed headache diary assessments immediately before and after dosing at time points: 7, 15, and 30 minutes; and 1, 1.5, 2, 3, 6, 12, 24, and 48 hours. Headache pain was assessed on a 4-point scale (0=none; 1=mild; 2=moderate; 3=severe). The assessment of photophobia, phonophobia, nausea, and neck/shoulder pain was assessed as present or absent. The assessment of emotional pain was recorded on a 4-point scale (0=none, 1=mild, 2=moderate, 3=severe). The assessment of difficulty sleeping or falling asleep (insomnia) was assessed on a 4-point scale (0=none, 1=mild, 2=moderate, 3=severe) at baseline, for the night before treatment and for the following nights at 24, and 48 hours. Patients recorded side effects severity at each time point. Patients recorded the time of the first rescue medication dose and all additional headache medications used within 48 hours. Patients were required to stay awake to record their assessments in the first 2 hours, sleeping was permitted thereafter. While asleep, assessments were completed according to patients' best estimation. For data analysis, it was assumed that a migraine attack is a unique patient. Patients were asked to specify (yes or no answer) to whether they experienced emotional pain symptoms such as: hurt feelings, sadness, fear, or anger. Patients who replied positively to having emotional pain were asked to specify the cause into one of the following options: relationship, work/school, money/debt, health, or loss/grief.

[3] = system: patient with lower back and leg pain and emotional pain due to separation from a child; experiment: Example 12 case study, patient diary
[4] = 24 hours after dosing, naltrexone/acetaminophen 2.25 mg/325 mg (N=21), naltrexone 2.25 mg (N=9)
[5] = NTX/APAP 2.25 mg/325 mg, NTX 2.25 mg
[6] = NTX/APAP 3.25 mg/325 mg, NTX 3.25 mg
[7] = Ibuprofen 800 mg T.I.D. PRN 2006-2010, Naltrexone 2.25 mg Q.I.D./Clonidine 0.025 mg Q.I.D. 2010-2015, APAP 325 mg Q.I.D. Jun. 29-Jul. 6, 2015, Naltrexone 2.5 mg Q.I.D. to Jul. 8, 2015, Naltrexone 2.25 mg/APAP 325 mg Q.I.D. Jul. 9-Oct. 4, 2015

O=C1CC[C@@]2(O)[C@H]3Cc4ccc(O)c5c4[C@@]2(CCN3CC2CC2)[C@H]1O5 [naltrexone]
mean average pain intensity [1]: 1.5 /10 | emotional pain intensity decreased by ([2]; 24-hour change from baseline, naltrexone 2.25 mg (n=9)): 55% | Emotional pain-free ([2]; 7 min, NTX/APAP 2.25 mg/325 mg, NTX 2.25 mg): 1 (33) n (%) | Emotional pain-free ([2]; 7 min, NTX/APAP 3.25 mg/325 mg, NTX 3.25 mg): 1 n (%) | Emotional pain-free ([2]; 7 min, NTX/APAP 5 mg/325 mg, NTX 5 mg): 0 n (%) | Emotional pain-free ([2]; 7 min, all doses combined): 2 (33) n (%) | Emotional pain-free ([2]; 15 min, NTX/APAP 2.25 mg/325 mg, NTX 2.25 mg): 7 (77) n (%) | Emotional pain-free ([2]; 15 min, NTX/APAP 3.25 mg/325 mg, NTX 3.25 mg): 2 n (%) | Emotional pain-free ([2]; 15 min, NTX/APAP 5 mg/325 mg, NTX 5 mg): 0 n (%) | Emotional pain-free ([2]; 15 min, NTX/APAP […]325 mg, NTX 1.5 mg): 2 n (%) | Emotional pain-free ([2]; 15 min, all doses combined): 11 (69) n (%) | Emotional pain-free ([2]; 30 min, NTX/APAP 2.25 mg/325 mg, NTX 2.25 mg): 8 (89) n (%) | Emotional pain-free ([2]; 30 min, NTX/APAP 3.25 mg/325 mg, NTX 3.25 mg): 2 (66) n (%) | Emotional pain-free ([2]; 30 min, NTX/APAP 5 mg/325 mg, NTX 5 mg): 1 (100) n (%) | Emotional pain-free ([2]; 30 min, NTX/APAP […]325 mg, NTX 1.5 mg): 2 (66) n (%) | Emotional pain-free ([2]; 30 min, all doses combined): 13 (87) n (%) | Emotional pain-free ([2]; 1 h, NTX/APAP 2.25 mg/325 mg, NTX 2.25 mg): 9 (100) n (%) | Emotional pain-free ([2]; 1 h, NTX/APAP 3.25 mg/325 mg, NTX 3.25 mg): 2 (66) n (%) | Emotional pain-free ([2]; 1 h, NTX/APAP 5 mg/325 mg, NTX 5 mg): 1 n (%) | Emotional pain-free ([2]; 1 h, NTX/APAP […]325 mg, NTX 1.5 mg): 2 (66) n (%) | Emotional pain-free ([2]; 1 h, all doses combined): 14 (88) n (%) | Emotional pain-free ([2]; 90 min, NTX/APAP 2.25 mg/325 mg, NTX 2.25 mg): 9 (100) n (%) | Emotional pain-free ([2]; 90 min, NTX/APAP 3.25 mg/325 mg, NTX 3.25 mg): 3 (100) n (%) | Emotional pain-free ([2]; 90 min, NTX/APAP 5 mg/325 mg, NTX 5 mg): 1 (100) n (%) | Emotional pain-free ([2]; 90 min, NTX/APAP […]325 mg, NTX 1.5 mg): 3 (100) n (%) | Emotional pain-free ([2]; 90 min, all doses combined): 16 (100) n (%) | Emotional pain-free ([2]; 2 h, NTX/APAP 2.25 mg/325 mg, NTX 2.25 mg): 9 (100) n (%) | Emotional pain-free ([2]; 2 h, NTX/APAP 3.25 mg/325 mg, NTX 3.25 mg): 3 (100) n (%) | Emotional pain-free ([2]; 2 h, NTX/APAP 5 mg/325 mg, NTX 5 mg): 1 n (%) | Emotional pain-free ([2]; 2 h, NTX/APAP […]325 mg, NTX 1.5 mg): 3 (100) n (%) | Emotional pain-free ([2]; 2 h, combined doses): 16 (100) | Emotional pain-free ([2]; 3 h, NTX/APAP 2.25 mg/325 mg, NTX 2.25 mg): 9 (100) n (%) | Emotional pain-free ([2]; 3 h, NTX/APAP 3.25 mg/325 mg, NTX 3.25 mg): 3 (100) n (%) | Emotional pain-free ([2]; 3 h, NTX/APAP 5 mg/325 mg, NTX 5 mg): 1 (100) n (%) | Emotional pain-free ([2]; 3 h, NTX/APAP […]325 mg, NTX 1.5 mg): 3 (100) n (%) | Emotional pain-free ([2]; 3 h, combined doses): 16 (100) n (%) | Emotional pain-free ([2]; 4 h, NTX/APAP 2.25 mg/325 mg, NTX 2.25 mg): 9 (100) n (%) | Emotional pain-free ([2]; 4 h, NTX/APAP 3.25 mg/325 mg, NTX 3.25 mg): 3 (100) n (%) | Emotional pain-free ([2]; 4 h, NTX/APAP 5 mg/325 mg, NTX 5 mg): 1 (100) n (%) | Emotional pain-free ([2]; 4 h, NTX/APAP […]325 mg, NTX 1.5 mg): 3 (100) n (%) | Emotional pain-free ([2]; 4 h, combined doses): 15 (94) n (%) | Emotional pain-free ([2]; 6 h, NTX/APAP 2.25 mg/325 mg, NTX 2.25 mg): 9 (100) n (%) | Emotional pain-free ([2]; 6 h, NTX/APAP 3.25 mg/325 mg, NTX 3.25 mg): 3 (100) n (%) | Emotional pain-free ([2]; 6 h, NTX/APAP 5 mg/325 mg, NTX 5 mg): 1 (100) n (%) | Emotional pain-free ([2]; 6 h, NTX/APAP […]325 mg, NTX 1.5 mg): 3 (100) n (%) | Emotional pain-free ([2]; 6 h, combined doses): 15 (94) n (%) | Emotional pain-free ([2]; 12 h, NTX/APAP 2.25 mg/325 mg, NTX 2.25 mg): 9 (100) n (%) | Emotional pain-free ([2]; 12 h, NTX/APAP 3.25 mg/325 mg, NTX 3.25 mg): 3 (100) n (%) | Emotional pain-free ([2]; 12 h, NTX/APAP 5 mg/325 mg, NTX 5 mg): 1 (100) n (%) | Emotional pain-free ([2]; 12 h, NTX/APAP […]325 mg, NTX 1.5 mg): 3 (100) n (%) | Emotional pain-free ([2]; 12 h, combined doses): 15 (94) n (%) | Emotional pain-free ([2]; 24 h, NTX/APAP 2.25 mg/325 mg, NTX 2.25 mg): 9 (100) n (%) | Emotional pain-free ([2]; 24 h, NTX/APAP 3.25 mg/325 mg, NTX 3.25 mg): 3 (100) n (%) | Emotional pain-free ([2]; 24 h, NTX/APAP 5 mg/325 mg, NTX 5 mg): 1 (100) n (%) | Emotional pain-free ([2]; 24 h, NTX/APAP […]325 mg, NTX 1.5 mg): 3 (100) n (%) | Emotional pain-free ([2]; 24 h, combined doses): 15 (94) | Emotional Pain-free at 24 hours after dosing ([2]; 24 hours after dosing, NTX/APAP 2.25 mg/325 mg, NTX 2.25 mg): 9 (100) n (%) | Emotional Pain-free at 24 hours after dosing ([2]; 24 hours after dosing, NTX/APAP 3.25 mg/325 mg, NTX 3.25 mg): 3 n (%) | Emotional Pain-free at 24 hours after dosing ([2]; 24 hours after dosing, NTX/APAP 5 mg/325 mg, NTX 5 mg): 1 n (%) | Emotional Pain-free at 24 hours after dosing ([2]; 24 hours after dosing, NTX/APAP […]325 mg, NTX 1.5 mg): 3 n (%) | emotional pain intensity change from baseline [2, 4]: −55% | emotional pain-free change from baseline [2, 4]: 33% | Emotional pain-free ([2]; 48 h, NTX/APAP 2.25 mg/325 mg, NTX 2.25 mg): 9 (100) | Emotional pain-free ([2]; 48 h, NTX/APAP 3.25 mg/325 mg, NTX 3.25 mg): 3 (100) | Emotional pain-free ([2]; 48 h, NTX/APAP 5 mg/325 mg, NTX 5 mg): 1 (100) | Emotional pain-free ([2]; 48 h, NTX/APAP […]325 mg, NTX 1.5 mg): 3 (100) | Emotional pain-free ([2]; 48 h, combined doses): 13 (100) n (%) | Change in emotional pain-free [2, 5]: +3 (+33) n (%) | Change in emotional pain-intensity [2, 5]: −5 (−55) n (%) | Change in emotional pain-intensity [2, 6]: −1 (−100) n (%) | Change in emotional pain-intensity ([2]; NTX/APAP 5 mg/325 mg, NTX 5 mg): −2 (−100) n (%) | Change in emotional pain-free ([2]; NTX/APAP […]325 mg, NTX 1.5 mg): +1 n (%) | Emotional pain-free at baseline [2, 5]: 6 (66) n (%) | Emotional pain-free at baseline [2, 6]: 2 n (%) | Emotional pain-free at baseline ([2]; NTX/APAP 5 mg/325 mg, NTX 5 mg): 0 n (%) | Emotional pain-free at baseline ([2]; NTX/APAP […]325 mg, NTX 1.5 mg): 2 n (%) | Emotional pain-intensity at 24 hours post-dosing [2, 5]: 0 n (%) | Emotional pain-intensity at 24 hours post-dosing [2, 6]: 0 n (%) | Emotional pain-intensity at 24 hours post-dosing ([2]; NTX/APAP 5 mg/325 mg, NTX 5 mg): 0 n (%) | Emotional pain-intensity at 24 hours post-dosing ([2]; NTX/APAP […]325 mg, NTX 1.5 mg): 0 n (%) | Emotional pain-intensity at baseline [2, 5]: 5 (55) n (%) | Emotional pain-intensity at baseline [2, 6]: 1 n (%) | Emotional pain-intensity at baseline ([2]; NTX/APAP 5 mg/325 mg, NTX 5 mg): 2 n (%) | Emotional pain-intensity at baseline ([2]; NTX/APAP […]325 mg, NTX 1.5 mg): 2 n (%) | API, average pain intensity (0-10 NRS) [3, 7]: 4 | Insomnia (0-10 NRS) [3, 7]: 6.5 | PRSI, Pain Related Sleep Interference (0-10 NRS) [3, 7]: 5.5 | WEP, Worst Emotional Pain (0-10 NRS) [3, 7]: 5.5 | WPI, Worst Pain Intensity (0-10 NRS) [3, 7]: 5 | PGIC (1-7 Likert) ([3]; Naltrexone 2.25 mg Q.I.D./Clonidine 0.025 mg Q.I.D. 2010-2015, APAP 325 mg Q.I.D. Jun. 29-Jul. 6, 2015, Naltrexone 2.5 mg Q.I.D. to Jul. 8, 2015, Naltrexone 2.25 mg/APAP 325 mg Q.I.D. Jul. 9-Oct. 4, 2015): 6 | emotional pain due to separation from child (patient report) ([3]; naltrexone/clonidine, acetaminophen 325 mg four times daily 5 days, naltrexone alone 12 days, naltrexone 2.25 mg and acetaminophen 325 mg four times daily almost three months): same level of emotional pain
